Reference: ChEMBL document CHEMBL1201862, “PubChem BioAssay data set” (2004)
Calls of active or inactive are those of the source.

Legend:
[1] = tested on: Vero; experiment: cells; format: functional; settings: Chlorocebus sabaeus
[2] = target: Beta-galactosidase (Escherichia coli, UniProt Q8VNN2); experiment: PubChem AID 485352; format: functional
[3] = target: T1, Type-1 angiotensin II receptor (Homo sapiens, UniProt P30556); experiment: antagonism of angiotensin II type 1 receptor – cell-based, uHTS hits, selectivity assay for APJ receptor antagonist project, dose response (AID 463214); format: functional;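 also: antagonist potency against angiotensin II stimulated AT1 response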
T1 sequence (P30556 whole entry): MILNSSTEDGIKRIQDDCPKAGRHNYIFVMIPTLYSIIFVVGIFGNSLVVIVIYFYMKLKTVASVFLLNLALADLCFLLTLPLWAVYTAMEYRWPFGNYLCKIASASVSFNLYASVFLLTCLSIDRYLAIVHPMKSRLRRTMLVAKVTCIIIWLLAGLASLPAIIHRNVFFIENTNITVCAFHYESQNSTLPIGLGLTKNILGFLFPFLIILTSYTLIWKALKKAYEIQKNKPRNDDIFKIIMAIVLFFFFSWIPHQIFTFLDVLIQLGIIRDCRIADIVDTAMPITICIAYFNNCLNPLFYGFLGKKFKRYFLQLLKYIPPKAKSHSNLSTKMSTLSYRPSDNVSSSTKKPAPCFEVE

[4] = target: T2, Aminopeptidase N (Plasmodium falciparum FcB1/Columbia, UniProt O96935); experiment: malaria alanyl aminopeptidase activity blockers – biochemical, fluorogenic H-Leu-NHMec substrate, 1536-well (AID 1445); parameters: species or system Plasmodium falciparum 3D7, 3D7
T2 sequence (O96935 whole entry): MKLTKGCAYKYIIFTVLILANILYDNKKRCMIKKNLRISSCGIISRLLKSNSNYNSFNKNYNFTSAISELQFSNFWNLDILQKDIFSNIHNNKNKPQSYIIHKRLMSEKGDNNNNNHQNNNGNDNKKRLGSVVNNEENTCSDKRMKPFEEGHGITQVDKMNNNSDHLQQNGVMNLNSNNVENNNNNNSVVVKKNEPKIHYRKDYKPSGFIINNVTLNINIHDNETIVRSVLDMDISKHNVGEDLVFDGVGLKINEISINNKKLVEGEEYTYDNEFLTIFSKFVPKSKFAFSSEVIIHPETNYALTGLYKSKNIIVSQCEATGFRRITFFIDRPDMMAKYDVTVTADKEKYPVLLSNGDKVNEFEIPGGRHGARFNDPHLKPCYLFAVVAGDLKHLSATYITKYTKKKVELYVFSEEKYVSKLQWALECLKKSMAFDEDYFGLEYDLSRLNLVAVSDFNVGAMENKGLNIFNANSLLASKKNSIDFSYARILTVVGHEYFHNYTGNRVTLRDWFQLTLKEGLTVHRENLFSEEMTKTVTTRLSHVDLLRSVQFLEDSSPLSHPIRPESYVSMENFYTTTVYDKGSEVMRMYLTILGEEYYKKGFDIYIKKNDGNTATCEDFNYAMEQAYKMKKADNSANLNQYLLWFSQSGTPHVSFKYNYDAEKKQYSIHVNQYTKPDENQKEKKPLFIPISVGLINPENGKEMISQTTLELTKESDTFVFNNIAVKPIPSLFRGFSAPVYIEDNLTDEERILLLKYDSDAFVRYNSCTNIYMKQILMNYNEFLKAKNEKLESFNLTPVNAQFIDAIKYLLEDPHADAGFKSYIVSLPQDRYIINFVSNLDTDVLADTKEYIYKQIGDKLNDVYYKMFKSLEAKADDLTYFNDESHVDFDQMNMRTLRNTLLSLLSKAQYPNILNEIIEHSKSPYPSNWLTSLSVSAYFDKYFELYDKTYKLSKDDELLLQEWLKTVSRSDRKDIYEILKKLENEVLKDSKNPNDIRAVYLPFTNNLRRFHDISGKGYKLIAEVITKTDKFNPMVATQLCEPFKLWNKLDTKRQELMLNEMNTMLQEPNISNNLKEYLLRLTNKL

[5] = target: Genome polyprotein (dengue virus type 2, UniProt P29990); experiment: flavivirus cap methylation enzyme inhibition – biochemical, confirmation dose response, primary screen (AID 588689); format: functional
Sequence of Genome polyprotein (P29990 2492-3391 limits assumed): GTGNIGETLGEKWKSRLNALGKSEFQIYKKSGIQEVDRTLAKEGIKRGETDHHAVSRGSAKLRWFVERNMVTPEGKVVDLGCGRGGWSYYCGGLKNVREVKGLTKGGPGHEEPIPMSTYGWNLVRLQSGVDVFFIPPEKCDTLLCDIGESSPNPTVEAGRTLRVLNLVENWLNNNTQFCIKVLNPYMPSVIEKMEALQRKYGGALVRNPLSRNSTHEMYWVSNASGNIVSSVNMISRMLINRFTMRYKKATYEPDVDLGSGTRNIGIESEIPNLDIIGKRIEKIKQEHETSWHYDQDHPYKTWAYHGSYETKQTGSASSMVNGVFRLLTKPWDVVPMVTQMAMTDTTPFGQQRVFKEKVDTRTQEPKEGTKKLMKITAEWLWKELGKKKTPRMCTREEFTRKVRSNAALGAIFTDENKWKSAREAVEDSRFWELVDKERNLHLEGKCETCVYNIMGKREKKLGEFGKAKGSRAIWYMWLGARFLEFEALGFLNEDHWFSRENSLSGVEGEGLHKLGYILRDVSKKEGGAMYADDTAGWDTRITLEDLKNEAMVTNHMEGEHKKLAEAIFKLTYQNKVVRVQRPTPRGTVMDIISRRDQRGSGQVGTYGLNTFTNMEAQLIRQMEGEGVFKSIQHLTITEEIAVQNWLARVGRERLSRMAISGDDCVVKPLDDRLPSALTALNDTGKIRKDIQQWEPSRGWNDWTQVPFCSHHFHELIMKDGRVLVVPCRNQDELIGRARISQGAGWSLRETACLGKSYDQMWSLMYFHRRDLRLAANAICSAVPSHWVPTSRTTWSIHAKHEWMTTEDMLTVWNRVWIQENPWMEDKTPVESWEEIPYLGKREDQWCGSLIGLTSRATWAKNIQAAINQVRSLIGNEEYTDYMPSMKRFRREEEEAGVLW

[6] = luciferase reporter signal suppression in cells – H4 neuroglioma cells, luminescence, dose response (AID 1990); format: functional, cell-based
[7] = tested on: Streptococcus sp. 'group A'; experiment: Streptococcus pyogenes SK(-)GAS viability under kanamycin – luminescence, BacTiterGlo, confirmation, counter-screen for streptokinase expression inhibitor project, dose response (AID 1900); format: functional, organism-based
[8] = Luminescence Cell-Based Dose Response HTS to Identify Inhibitors of 5'UTR Stem-Loop Driven Prion Protein mRNA Translation in H4 Neuroglioblastoma Cells. [Related pubchem assays: 1827 (Project Summary), 1813 (Primary HTS)]; format: functional
[9] = alpha-synuclein stem-loop luciferase translation blockers – H4 neuroglioma cells, luminescence, confirmation (AID 1988); format: functional, cell-based
[10] = Trypanosoma cruzi growth suppression in host cells – NIH3T3 host cells, beta-gal luminescence, confirmation (AID 2044); format: functional, cell-based;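 also: intracellular parasites grown in NIH/3T3 mouse fibroblasts as host cells; luminescent beta-galactosidase reporter signal from transgenic T. cruzi replicating inside host cells; inhibitors lower the luminescence signal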
[11] = NIH3T3 cell viability loss – ATP luminescence, mouse fibroblasts, counter-screen, dose response (AID 2010); format: functional, cell-based;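 also: cells exposed to compound for about 90 hours before reading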
[12] = tested on: Streptococcus; experiment: GAS UMAA2166 growth inhibition – luminescence, BacTiterGlo, counter-screen for streptokinase expression inhibitor project, dose response (AID 1915); format: functional, organism-based;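 also: potency for reduction of bacterial viability or growth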
[13] = target: T3, Calpain-2 catalytic subunit (Sus scrofa, UniProt P43367); experiment: m-calpain protease blockers, concentration series – biochemical, fluorogenic peptide substrate, dose response (AID 1420); format: functional
T3 sequence (P43367 whole entry): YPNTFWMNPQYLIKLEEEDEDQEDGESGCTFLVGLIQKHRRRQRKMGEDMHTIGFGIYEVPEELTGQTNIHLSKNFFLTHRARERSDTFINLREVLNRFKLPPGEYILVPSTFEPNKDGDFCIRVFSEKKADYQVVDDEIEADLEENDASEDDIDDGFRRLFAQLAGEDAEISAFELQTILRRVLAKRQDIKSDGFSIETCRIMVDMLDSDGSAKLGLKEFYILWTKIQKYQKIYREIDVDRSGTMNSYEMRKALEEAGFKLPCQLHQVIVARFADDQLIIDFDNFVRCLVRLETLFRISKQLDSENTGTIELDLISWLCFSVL

[14] = target: T4, Microphthalmia-associated transcription factor (Homo sapiens, UniProt O75030); experiment: reducers of TRPM1 reporter luminescence, concentration series – cell-based, SK-MEL-5, cherry-picked, set 3, MITF inhibitor project, dose response (AID 493073); format: functional;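 also: SK-MEL-5 melanoma cells with luciferase driven by the MITF target TRPM1 promoter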
T4 sequence (O75030 whole entry): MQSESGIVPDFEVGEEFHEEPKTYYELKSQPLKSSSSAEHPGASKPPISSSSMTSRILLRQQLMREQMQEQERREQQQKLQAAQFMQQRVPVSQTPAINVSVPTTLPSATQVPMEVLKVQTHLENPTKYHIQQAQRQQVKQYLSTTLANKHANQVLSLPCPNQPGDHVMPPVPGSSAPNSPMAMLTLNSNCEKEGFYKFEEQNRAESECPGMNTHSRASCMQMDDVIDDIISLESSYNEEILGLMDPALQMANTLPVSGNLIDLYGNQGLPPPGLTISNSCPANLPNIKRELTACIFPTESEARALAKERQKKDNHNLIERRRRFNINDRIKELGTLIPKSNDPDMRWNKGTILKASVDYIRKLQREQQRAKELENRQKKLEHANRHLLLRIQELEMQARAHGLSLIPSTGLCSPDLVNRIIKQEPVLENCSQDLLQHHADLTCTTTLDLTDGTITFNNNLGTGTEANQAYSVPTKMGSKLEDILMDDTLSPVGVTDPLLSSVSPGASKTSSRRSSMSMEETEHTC

[15] = target: T5, Fatty acid synthase (Homo sapiens, UniProt P49327); experiment: inhibition of human FAS-TE enzyme activity – biochemical, endpoint fluorescence intensity, uHTS hits, dose response (AID 624327); format: functional;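 also: fluorescence from hydrolysis of an O-methyl fluorescein acyl ester substrate by the enzyme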
T5 sequence (P49327 whole entry): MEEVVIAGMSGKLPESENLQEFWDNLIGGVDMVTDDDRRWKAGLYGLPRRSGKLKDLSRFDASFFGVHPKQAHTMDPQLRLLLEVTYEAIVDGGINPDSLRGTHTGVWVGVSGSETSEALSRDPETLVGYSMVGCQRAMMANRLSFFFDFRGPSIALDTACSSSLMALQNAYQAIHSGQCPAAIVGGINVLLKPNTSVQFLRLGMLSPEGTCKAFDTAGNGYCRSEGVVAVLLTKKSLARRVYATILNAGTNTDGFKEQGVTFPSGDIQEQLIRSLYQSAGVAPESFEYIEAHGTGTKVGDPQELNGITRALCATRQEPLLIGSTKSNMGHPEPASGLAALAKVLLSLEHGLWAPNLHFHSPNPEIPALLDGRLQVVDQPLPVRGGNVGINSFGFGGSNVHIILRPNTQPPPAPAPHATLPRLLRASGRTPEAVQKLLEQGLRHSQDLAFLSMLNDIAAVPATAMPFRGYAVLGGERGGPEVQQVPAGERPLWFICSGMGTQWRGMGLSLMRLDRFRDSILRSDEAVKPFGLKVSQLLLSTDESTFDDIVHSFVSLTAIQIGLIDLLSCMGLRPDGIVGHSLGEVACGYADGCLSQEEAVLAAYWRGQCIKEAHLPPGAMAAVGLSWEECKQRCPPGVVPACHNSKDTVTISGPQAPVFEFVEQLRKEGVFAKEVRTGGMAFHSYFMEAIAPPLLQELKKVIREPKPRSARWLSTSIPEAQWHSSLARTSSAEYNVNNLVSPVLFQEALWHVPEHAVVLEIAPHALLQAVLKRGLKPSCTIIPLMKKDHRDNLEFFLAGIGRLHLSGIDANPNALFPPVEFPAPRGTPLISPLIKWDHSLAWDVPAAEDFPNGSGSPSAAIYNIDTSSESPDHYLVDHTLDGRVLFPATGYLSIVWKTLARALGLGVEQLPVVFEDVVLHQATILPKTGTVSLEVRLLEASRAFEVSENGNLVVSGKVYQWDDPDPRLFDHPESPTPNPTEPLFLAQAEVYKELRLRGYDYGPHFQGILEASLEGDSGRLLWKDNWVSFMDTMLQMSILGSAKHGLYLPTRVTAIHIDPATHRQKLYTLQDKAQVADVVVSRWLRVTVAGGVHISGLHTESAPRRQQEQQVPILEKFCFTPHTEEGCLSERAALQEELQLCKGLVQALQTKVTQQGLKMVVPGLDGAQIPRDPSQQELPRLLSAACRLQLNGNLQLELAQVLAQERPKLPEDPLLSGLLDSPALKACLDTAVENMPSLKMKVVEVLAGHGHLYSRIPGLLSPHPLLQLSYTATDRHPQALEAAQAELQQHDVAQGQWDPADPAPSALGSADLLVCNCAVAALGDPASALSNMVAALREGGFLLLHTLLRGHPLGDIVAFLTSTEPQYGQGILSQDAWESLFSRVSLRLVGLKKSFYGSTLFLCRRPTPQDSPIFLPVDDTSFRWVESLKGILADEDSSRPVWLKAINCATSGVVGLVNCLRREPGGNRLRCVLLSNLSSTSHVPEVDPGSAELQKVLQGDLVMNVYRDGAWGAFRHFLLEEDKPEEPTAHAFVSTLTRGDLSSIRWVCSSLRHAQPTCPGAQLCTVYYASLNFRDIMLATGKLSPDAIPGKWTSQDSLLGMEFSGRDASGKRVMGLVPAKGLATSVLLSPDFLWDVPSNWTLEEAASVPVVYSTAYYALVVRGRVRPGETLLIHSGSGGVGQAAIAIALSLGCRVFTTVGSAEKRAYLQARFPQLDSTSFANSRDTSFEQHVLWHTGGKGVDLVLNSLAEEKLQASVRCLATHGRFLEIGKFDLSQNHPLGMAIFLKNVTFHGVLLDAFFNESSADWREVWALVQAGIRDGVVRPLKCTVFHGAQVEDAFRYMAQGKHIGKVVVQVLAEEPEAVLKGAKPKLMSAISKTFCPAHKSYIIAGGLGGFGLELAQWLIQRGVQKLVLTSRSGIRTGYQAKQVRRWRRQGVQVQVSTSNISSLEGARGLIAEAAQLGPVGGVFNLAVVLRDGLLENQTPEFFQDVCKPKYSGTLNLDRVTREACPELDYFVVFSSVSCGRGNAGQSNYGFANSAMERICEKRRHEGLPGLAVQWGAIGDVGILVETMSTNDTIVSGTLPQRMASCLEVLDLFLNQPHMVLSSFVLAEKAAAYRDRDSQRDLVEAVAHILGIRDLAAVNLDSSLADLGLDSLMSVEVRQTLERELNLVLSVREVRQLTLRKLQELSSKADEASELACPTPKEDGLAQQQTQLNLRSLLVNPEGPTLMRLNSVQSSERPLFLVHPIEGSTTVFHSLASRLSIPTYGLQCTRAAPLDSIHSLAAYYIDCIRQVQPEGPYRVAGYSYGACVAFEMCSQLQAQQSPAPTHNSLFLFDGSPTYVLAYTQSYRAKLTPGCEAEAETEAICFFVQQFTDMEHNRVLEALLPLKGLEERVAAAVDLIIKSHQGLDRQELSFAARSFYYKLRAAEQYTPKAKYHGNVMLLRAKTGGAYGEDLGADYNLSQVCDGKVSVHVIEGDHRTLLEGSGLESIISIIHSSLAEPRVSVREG

[16] = target: T5, Fatty acid synthase; experiment: inhibition of human FAS-TE enzyme activity – biochemical, kinetic fluorescence intensity, dose response (AID 624326); format: functional;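 also: rate of fluorescence rise from hydrolysis of a fluorogenic O-methyl fluorescein ester substrate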
[17] = target: T6, Coagulation factor XII (Homo sapiens, UniProt P00748); format: functional;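 also: activated factor XIIa alpha cleaving a fluorogenic AMC peptide substrate; inhibitor potency from loss of enzyme activity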
T6 sequence (P00748 whole entry): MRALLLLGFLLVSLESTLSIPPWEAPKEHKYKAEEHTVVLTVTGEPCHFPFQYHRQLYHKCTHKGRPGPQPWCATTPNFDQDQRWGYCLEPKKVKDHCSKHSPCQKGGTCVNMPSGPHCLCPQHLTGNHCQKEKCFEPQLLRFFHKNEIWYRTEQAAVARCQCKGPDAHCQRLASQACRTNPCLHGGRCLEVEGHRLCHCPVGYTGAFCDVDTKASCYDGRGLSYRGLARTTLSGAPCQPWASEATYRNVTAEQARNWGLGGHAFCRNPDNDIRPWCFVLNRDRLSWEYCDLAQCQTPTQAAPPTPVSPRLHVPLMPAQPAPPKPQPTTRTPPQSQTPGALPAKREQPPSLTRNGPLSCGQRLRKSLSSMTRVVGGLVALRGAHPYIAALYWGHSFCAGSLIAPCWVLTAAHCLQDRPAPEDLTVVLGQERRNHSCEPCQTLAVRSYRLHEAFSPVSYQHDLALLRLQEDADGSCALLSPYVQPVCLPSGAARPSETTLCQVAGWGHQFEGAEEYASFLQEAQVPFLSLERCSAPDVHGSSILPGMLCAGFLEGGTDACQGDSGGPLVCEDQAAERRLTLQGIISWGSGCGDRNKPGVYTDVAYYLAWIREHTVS

Sequence of Beta-galactosidase (Q8VNN2 whole entry): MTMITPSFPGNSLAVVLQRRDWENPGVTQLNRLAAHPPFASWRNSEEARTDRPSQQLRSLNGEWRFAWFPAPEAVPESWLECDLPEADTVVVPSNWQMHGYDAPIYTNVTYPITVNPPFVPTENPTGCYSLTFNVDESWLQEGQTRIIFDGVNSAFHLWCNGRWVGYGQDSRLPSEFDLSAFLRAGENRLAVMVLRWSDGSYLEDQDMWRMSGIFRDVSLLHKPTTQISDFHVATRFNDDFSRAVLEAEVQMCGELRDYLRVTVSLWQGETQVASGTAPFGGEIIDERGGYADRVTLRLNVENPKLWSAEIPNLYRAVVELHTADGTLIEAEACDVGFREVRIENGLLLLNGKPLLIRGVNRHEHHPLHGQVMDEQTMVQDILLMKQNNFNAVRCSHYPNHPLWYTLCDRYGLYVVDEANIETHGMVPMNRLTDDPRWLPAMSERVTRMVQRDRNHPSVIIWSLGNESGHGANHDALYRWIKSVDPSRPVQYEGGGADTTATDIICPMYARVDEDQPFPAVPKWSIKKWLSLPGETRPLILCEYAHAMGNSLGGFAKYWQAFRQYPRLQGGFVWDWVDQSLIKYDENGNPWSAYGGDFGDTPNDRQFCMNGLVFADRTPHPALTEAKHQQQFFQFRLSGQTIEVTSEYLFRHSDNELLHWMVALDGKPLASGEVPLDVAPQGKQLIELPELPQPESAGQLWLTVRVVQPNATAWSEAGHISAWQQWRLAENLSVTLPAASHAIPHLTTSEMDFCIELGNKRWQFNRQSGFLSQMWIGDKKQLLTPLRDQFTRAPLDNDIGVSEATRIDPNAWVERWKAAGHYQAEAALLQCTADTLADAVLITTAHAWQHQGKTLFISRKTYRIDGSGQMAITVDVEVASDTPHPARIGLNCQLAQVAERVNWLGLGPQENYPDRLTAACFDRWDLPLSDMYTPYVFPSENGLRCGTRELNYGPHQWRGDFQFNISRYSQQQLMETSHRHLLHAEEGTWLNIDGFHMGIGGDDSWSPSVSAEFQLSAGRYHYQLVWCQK

In the case of `CN(C)CC1CCC/C(=C\c2ccc(OC(=O)/C=C/c3ccccc3)cc2)C1=O` (stereo not given), the CC50 [1] is reported as > 25 µM (active).
For `COc1ccc(C(=O)NC(=S)Nc2nnn(C)n2)cc1`, the EC50 [2] was > 40 µM (inactive) and the IC50 [3] was > 40 µM (not active).
With `COc1ccccc1/C=C1\SC(=S)N(C(C(=O)O)c2ccccc2)C1=O` (stereo not given) the IC50 [4] was 26 µM (active) and the IC50 [5] was 39.1 µM (active).
With `CC(C)(C)c1cc(Cl)c(O)c(NC(=S)NC(=O)c2cccnc2)c1` the EC50 [6] was 16.5 µM (active), the EC50 [7] was 0.448 µM (active) and the EC50 [8] was 15 µM (active). The EC50 [2] was > 40 µM (inactive), the EC50 [9] was > 120 µM (not active) and the EC50 [10] was 2.56 µM (active). The IC50 [3] was 22.2 µM (not active), the EC50 [11] was 6.97 µM (active) and the EC50 [12] was 6.42 µM (active).
For `CCOc1cc(/C=C(/C#N)c2ccc(Cl)cc2)cc(Cl)c1OCC(=O)O`, the IC50 [13] was 3.06 µM (not active), the AC50 [14] was 5.61 µM (active) and the IC50 [5] was 34.5 µM (active). The IC50 [15] was 6.78 µM (active) and the IC50 [16] was 10.4 µM (active).
With `CC(C)c1ccc(O)c(NC(=S)NC(=O)c2cccnc2)c1` the EC50 [2] was > 40 µM (inactive), the IC50 [3] was 23.2 µM (not active) and the IC50 [17] was > 50 µM (inactive).
For `C=C1C(=O)OC2CC3(C)OC3CCC(C)=CC(OC(C)=O)C12` (stereo not given), the CC50 [1] was 23.8 µM (active).
For `OCCN1C[C@H](O)[C@@H](O)[C@H](O)[C@H]1CO` [MIGLITOL], the EC50 [2] was > 40 µM (inactive) and the IC50 [3] was > 40 µM (not active).
